Patent US20120071475A1, “UREA DERIVATIVES HAVING PI3K-INHIBITING ACTIVITY” (SHIONOGI & CO., LTD., priority 2009, published 2012)

How the values were obtained:
PI3Kγ [1] = target: T1, PI3Kγ (Homo sapiens, UniProt P48736); experiment: PI3Kγ inhibitory activity (PI3-kinase HTRF assay, inhibition ratio); type: biochemical; conditions: 0.5 h, compound at 10 μmol/L; read-out: PI3Kg Inhibition Ratio % (10 μM)
Method: For each compound synthesized in the above Examples, PI3Kγ inhibitory activity was measured.
The PI3Kγ inhibitory activity of a compound was evaluated using PI3-kinase HTRF™ assay (Millipore) according to the following procedure:
To each well of a testing plate, 5 μL of a compound solution containing 10% DMSO (40 μmol/L as the concentration of the compound), 5 μL of a substrate solution (40 μmol/L phosphatidylinositol (4,5)-bisphosphate, 20 mmol/L MgCl2, 10 mmol/L DTT), and 5 μL of an enzyme solution (80 μg/mL PI-3 kinase y, 10 mmol/L MgCl2, 5 mmol/L DTT) were added, and then allowed to stand for 10 minutes.
Then, 5 μL of a reaction solution (40 μmol/L ATP, 10 mmol/L MgCl2, 5 mmol/L DTT) was added thereto. After reacting for 30 minutes at room temperature, 5 μL of a solution containing EDTA and biotinylated phosphatidylinositol (3,4,5)-triphosphate was added to quench the reaction.
5 μL of a detection reagent containing a europium-labeled anti-GST antibody, the GST-tagged PH domain, and allophycocyanin-labeled streptavidin was added thereto. After 18 hours, HTRF (excitation wavelength: 330 nm, measured wavelengths: 620 nm and 665 nm) was measured.
HTRF ratio was defined as the value obtained by dividing the amount of fluorescence obtained at the measured wavelength 665 nm by the amount of fluorescence obtained at 620 nm. The HTRF ratio in the absence of a compound was defined as 100% activity and the HTRF ratio in the absence of PI-3 kinase y was defined as 0% activity to calculate an inhibition ratio, which was defined as the PI3Kγ inhibitory activity of a compound at 10 μmol/L.

CYP3A4 = target: T2, CYP3A4 (Homo sapiens, UniProt P08684); experiment: CYP3A4 fluorescence MBI test; type: in vitro ADME; conditions: difference in IC50 with 0 or 30 minutes pre-reaction; CYP3A4 expressed in E. coli, substrate 7-BFC
T2 construct: host or cells: E. coli
T2 sequence (P08684 whole entry): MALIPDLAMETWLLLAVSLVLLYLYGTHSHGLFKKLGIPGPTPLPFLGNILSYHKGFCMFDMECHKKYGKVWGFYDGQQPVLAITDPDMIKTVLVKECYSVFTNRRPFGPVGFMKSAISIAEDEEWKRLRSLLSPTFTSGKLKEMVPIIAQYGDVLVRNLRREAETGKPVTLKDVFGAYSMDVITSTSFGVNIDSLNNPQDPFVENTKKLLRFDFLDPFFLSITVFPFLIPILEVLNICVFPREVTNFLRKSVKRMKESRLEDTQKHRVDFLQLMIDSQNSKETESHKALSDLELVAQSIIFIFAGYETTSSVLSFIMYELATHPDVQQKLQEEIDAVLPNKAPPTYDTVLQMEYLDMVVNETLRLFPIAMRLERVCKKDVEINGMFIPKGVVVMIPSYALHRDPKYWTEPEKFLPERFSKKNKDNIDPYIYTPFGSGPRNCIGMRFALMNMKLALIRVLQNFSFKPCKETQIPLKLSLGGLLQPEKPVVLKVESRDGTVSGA
Method: The CYP3A4 fluorescence MBI test is a test to examine the enhancement of CYP3A4 inhibition of a compound by a metabolic reaction. The test was performed using as an index, a reaction to produce a metabolite 7-hydroxytrifluoromethylcoumarin (HFC) which emits fluorescence, in which CYP3A4 expressed in E. coli was used as an enzyme and 7-benzyloxytrifluoromethylcoumarin (7-BFC) is debenzylated by CYP3A4 enzyme.
The reaction conditions are as follows: substrate: 5.6 μmol/L 7-BFC; pre-reaction time; 0 or 30 minutes; reaction time: 15 minutes; reaction temperature: 25° C. (room temperature); content of CYP3A4 (an enzyme expressed in E. coli): […] at the time of a pre-reaction and […] (when diluted 10 times) at the time of a reaction; the concentrations of a test drug: 0.625, 1.25, 2.5, 5, 10, and 20 μmol/L (6 points).
In a 96-well plate, an enzyme solution and a test drug solution were added as a pre-reaction solution into K-Pi buffer solution (pH 7.4) in the aforementioned ratio. A portion thereof was transferred to another 96-well plate to be diluted ten times with a substrate and a K-Pi buffer solution. A coenzyme, NADPH, was then added to start a reaction, which is the index (this is without a pre-reaction). After reacting for a predetermined time, 4:1 of acetonitrile: 0.5 mol/L Tris (trishydroxyaminomethane) was added to quench the reaction. To the remaining pre-reaction solution, NADPH was added to start a pre-reaction (this is with a pre-reaction). After pre-reacting for a predetermined time, a portion thereof was transferred to another plate to be diluted ten times with a substrate and K-Pi buffer solution, and thereby the index reaction is started. After reacting for a predetermined time, 4:1 of acetonitrile:0.5 mol/L Tris (trishydroxyaminomethane) was added to quench the reaction. For each plate in which the index reaction was carried out, the fluorescence value of a metabolite 7-HFC was measured with a fluorescent plate reader (Ex=420 nm, Em=535 nm).
The case wherein only DMSO (a solvent which dissolved a drug) was added to a reaction system was defined as a control (100%). When a test drug solution was added, the remaining activity (%) at each concentration was calculated, and then IC50 was calculated with a concentration and an inhibition ratio by an inverse estimation using a logistic model. When the difference in IC50 value is 5 μmol/L or more, the compound is shown as (+). When 3 μmol/L or less, the compound is shown as (−).

hERG channel (IKr) = target: T3, hERG channel (IKr) (Homo sapiens, UniProt Q12809); experiment: hERG test (whole-cell patch-clamp, IKr in HEK293 cells); type: cell-based; conditions: human, HEK293 cells expressing hERG channel, pH 7.4, inhibition of maximum tail current (IKr), compound 1 μM
T3 construct: expressed in transfected cells; host or cells: HEK293
T3 sequence (Q12809 whole entry): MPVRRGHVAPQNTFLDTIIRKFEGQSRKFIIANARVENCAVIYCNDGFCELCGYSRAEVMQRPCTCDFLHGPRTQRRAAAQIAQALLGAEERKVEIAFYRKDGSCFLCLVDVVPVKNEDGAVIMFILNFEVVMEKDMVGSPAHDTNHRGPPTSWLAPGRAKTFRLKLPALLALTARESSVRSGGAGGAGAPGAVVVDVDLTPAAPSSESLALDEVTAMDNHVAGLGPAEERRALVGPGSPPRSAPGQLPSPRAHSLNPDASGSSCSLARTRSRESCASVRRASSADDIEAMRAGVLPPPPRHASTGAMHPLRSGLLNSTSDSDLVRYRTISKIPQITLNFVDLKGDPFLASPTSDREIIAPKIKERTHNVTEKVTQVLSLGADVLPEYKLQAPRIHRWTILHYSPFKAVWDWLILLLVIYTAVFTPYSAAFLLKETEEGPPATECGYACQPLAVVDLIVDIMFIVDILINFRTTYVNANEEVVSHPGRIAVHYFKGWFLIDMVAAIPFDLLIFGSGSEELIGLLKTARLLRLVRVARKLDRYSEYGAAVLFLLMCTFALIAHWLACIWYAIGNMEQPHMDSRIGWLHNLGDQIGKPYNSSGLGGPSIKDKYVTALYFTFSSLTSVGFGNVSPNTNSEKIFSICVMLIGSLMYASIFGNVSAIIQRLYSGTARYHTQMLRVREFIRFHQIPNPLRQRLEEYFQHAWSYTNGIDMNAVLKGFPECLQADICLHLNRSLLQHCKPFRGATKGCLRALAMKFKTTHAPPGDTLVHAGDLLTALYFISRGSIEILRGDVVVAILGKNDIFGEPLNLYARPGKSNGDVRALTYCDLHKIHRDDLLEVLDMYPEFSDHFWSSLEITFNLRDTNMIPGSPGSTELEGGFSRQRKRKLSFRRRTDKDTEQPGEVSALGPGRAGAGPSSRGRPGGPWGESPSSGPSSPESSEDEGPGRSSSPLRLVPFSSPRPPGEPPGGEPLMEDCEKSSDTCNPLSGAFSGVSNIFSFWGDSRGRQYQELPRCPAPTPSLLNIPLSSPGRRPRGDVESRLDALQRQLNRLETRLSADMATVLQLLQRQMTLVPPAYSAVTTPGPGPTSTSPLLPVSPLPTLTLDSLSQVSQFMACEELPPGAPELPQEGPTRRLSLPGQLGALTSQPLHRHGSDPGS
Source text: For the purpose of risk evaluation of QT interval extension of electrocardiogram, the activity on delayed rectification K^+ current (IKr), which plays an important role in a cardiac ventricle repolarization process, was examined using the HEK293 cell that was made to express human ether-a-go-go related gene (hERG) channel.
Using an automatic patch-clamp system (PatchXpress 7000A, Axon Instruments Inc.), by a whole-cell patch-clamp method, after the cell was maintained at a membrane potential of −80 mV, IKr induced upon applying depolarizing stimulation of +50 mV for 2 seconds and further applying repolarizing stimulation of −50 mV for 2 seconds was recorded. After generated electric current became stable, a test substance dissolved at an intended concentration in extracellular fluid (137 mmol/L NaCl, 4 mmol/L KCl, 1.8 mmol/L CaCl2.2H2O, 1 mmol/L MgCl2.6H2O, 10 mmol/L glucose, 10 mmol/L HEPES (4-(2-hydroxyethyl)-1-piperazineethanesulfonic acid), pH=7.4) was applied to the cell for 10 minutes under room temperature condition. From the obtained IKr, the absolute value of the maximum tail current was measured using analysis software (DataXpress ver. 1, Molecular Devices Corporation) and the value of the electric current in a maintained membrane potential as baseline. Moreover, an inhibition ratio for the maximum tail current prior to the application of the test substance was calculated and then compared with a group of media-application (0.1% dimethylsulfoxide solution) to evaluate influence of the test substance on IKr.

PI3Kγ [2] = target: T1, PI3Kγ; experiment: PI3Kγ inhibitory activity (Ki value); type: biochemical; conditions: read-out: PI3Kγ Ki value
Method: The PI3Kγ inhibitory activity (Ki value) of a compound was evaluated according to the following procedure:
5 μL of a compound solution containing 10% DMSO and […] of a compound was changed to 5 μL of a compound solution containing 10% DMSO and either 200, 64, 20, 6.4, 2, 0.64, or 0.20 μmol/L of the compound (optionally, this is diluted to a lower concentration). Using a method similar to the method for measuring PI3Kγ inhibitory activity, inhibition ratios of PI3Kγ were measured in the presence of the compound at 50, 16, 5, 1.6, 0.5, 0.16, and 0.05 μmol/L (optionally, a lower concentration). Then an IC50 value was calculated by a logistic approximation method or the linear regression method using two concentrations that cross 50% inhibition. Separately, the ATP concentration in the reaction solution (40 μmol/L ATP, 10 mmol/L MgCl2, 5 mmol/L DTT) at the time of the start of a reaction in the absence of the compound was changed to 80, 40, 20, 10, 5, 2.5, 1.25, or 0.625 μmol/L. Then, HTRF ratios were measured by a similar method. The value obtained by subtracting the HTRF ratio at each ATP concentration from the HTRF ratio in the absence of PI-3 kinase y was defined as the value obtained by multiplying reaction rate (v) at each ATP concentration with a constant. The Michaelis-Menten constant Km was then calculated by the Lineweaver-Burk plot method. The Ki value of a compound was calculated by the following formula wherein “μM” denotes “μmol/L.”
Ki value ═IC50 value/(1+test ATP concentration (μM)/Km (μM))

[3] = Metabolic stability test (pooled human liver microsome); type: in vitro ADME; conditions: percentage of test compound remained after 30 minutes, pooled human liver microsome 0.5 mg protein/mL, 1 mmol/L NADPH, 37° C., compound 0.5 μM
Method: After a subject compound was reacted for a certain time using a pooled human liver microsome commercially available, a reacted sample and an unreacted sample are compared to calculate a survival ratio, and then the degree of metabolism in the liver was evaluated.
0.2 mL of a buffer solution (50 mmol/L of Tris-HCl in pH 7.4, 150 mmol/L of potassium chloride, and 10 mmol/L of magnesium chloride) containing a human liver microsome of 0.5 mg protein/mL was reacted in the presence of 1 mmol/L NADPH at 37° C. for 0 or 30 minutes (oxidative reaction). After reacting, 50 μL of the reaction solution was added to 100 μL of a solution of methanol/acetonitrile (1/1 (v/v)), mixed, and then centrifuged at 3000 rpm for 15 minutes. The test compound in the supernatant was quantitated with LC/MS/MS. The amount of the compound at a reaction time of 0 minute was defined as 100% and, based on that, the percentage of the test compound remained after reacting for 30 minutes was calculated.

T1 sequence (P48736 whole entry, species assumed): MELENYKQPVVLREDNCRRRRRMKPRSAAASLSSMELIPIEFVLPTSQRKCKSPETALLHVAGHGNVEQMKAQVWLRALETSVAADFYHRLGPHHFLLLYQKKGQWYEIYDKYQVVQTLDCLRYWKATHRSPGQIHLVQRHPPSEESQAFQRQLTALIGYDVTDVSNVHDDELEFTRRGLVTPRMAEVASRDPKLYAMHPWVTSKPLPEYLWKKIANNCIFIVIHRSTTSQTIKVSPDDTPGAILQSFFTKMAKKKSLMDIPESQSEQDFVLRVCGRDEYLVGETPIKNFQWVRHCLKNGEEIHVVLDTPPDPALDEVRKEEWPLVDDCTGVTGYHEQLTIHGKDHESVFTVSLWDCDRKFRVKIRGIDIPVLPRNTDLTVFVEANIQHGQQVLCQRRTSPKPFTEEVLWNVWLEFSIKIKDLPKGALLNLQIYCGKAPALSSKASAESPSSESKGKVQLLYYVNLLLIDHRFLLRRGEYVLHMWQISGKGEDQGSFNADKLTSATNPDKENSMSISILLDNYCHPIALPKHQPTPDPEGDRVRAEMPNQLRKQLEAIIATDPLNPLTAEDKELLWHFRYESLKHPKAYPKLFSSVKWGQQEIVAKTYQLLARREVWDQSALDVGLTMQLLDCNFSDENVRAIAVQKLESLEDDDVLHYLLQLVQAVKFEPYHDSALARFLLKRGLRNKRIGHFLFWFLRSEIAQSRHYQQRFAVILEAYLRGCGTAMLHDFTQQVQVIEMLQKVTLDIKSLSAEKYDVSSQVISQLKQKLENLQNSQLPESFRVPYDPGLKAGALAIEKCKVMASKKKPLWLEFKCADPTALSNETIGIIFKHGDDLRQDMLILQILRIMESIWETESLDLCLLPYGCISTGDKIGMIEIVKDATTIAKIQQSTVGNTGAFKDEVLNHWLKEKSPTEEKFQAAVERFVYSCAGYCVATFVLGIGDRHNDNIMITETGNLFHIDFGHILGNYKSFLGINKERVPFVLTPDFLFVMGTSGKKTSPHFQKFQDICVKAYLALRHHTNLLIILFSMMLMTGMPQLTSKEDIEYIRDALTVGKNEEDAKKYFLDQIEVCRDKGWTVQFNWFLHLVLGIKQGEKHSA

Row | Structure (SMILES) | inhibition at 10 µM (PI3Kγ [1]) | MBI (CYP3A4) | inhibition at 10 min, 1 µM (hERG channel (IKr)) | Ki (PI3Kγ [2]) | hLMS_ox(at 0.5 μM) % [3]
1 | COc1cc(N2CCc3nc(NC(=O)NC4=C(C(=O)NC(C)C)CCC4)sc3C2)nc(OC)n1 [Compound I-29] | ≥ 95% | (−) (When 3 μmol/L or less, the compound is shown as (−)) | 8.7% | – | –
2 | COc1cncc(-c2cc(NC(=O)Nc3ccccc3OCCC(C)C)nn2C)c1 [Compound I-221] | ≥ 95% | – | – | 680 nM | –
3 | CCNC(=O)c1ccncc1NC(=O)Nc1nc2c(s1)CN(c1cc(OC)nc(OC)n1)CC2 [Compound I-94] | ≥ 95% | (−) (When 3 μmol/L or less, the compound is shown as (−)) | 6.8% | – | –
4 | COc1cncc(-c2ccc3nc(NC(=O)Nc4ccccc4C(=O)NC(C)C)cn3n2)c1 [Compound I-111] | – | (−) (When 3 μmol/L or less, the compound is shown as (−)) | 2.4% | – | –
5 | CCNC(=O)c1ccncc1NC(=O)Nc1nc2c(s1)CN(c1cc(Cl)nc(OC)n1)CC2 [Compound I-92] | – | – | 2.4% | – | –
6 | CCNC(=O)c1ccccc1NC(=O)Nc1nc2c(s1)CN(c1cc(OC)nc(OC)n1)CC2 [Compound I-57] | – | (−) (When 3 μmol/L or less, the compound is shown as (−)) | 5.3% | – | 83.5%
7 | COc1cc(N2CCc3nc(NC(=O)Nc4ccccc4C(=O)N[C@@H](C)CO)sc3C2)nc(OC)n1 [Compound I-101] | ≥ 95% | – | 9.6% | – | 91.9%
8 | COc1cc(N2CCc3nc(NC(=O)Nc4ccccc4OC(C)C)sc3C2)nc(OC)n1 [Compound I-48] | – | – | 3.2% | – | –
9 | COc1nc(Cl)cc(N2CCc3nc(NC(=O)Nc4ccccc4C(=O)NC(C)C)sc3C2)n1 [Compound I-53] | – | (−) (When 3 μmol/L or less, the compound is shown as (−)) | 5.1% | – | –
10 | CCNC(=O)c1ccccc1NC(=O)Nc1nc2c(s1)CN(c1cc(Cl)nc(OC)n1)CC2 [Compound I-93] | ≥ 95% | (−) (When 3 μmol/L or less, the compound is shown as (−)) | 6.8% | – | –
11 | COc1cc(N2CCc3nc(NC(=O)Nc4ccccc4C(=O)NC(C)C)sc3C2)cnc1OC [Compound I-80] | – | – | 5.5% | – | 82.1%
12 | COc1cc(N2CCc3nc(NC(=O)Nc4ccccc4C(=O)N[C@H](C)CO)sc3C2)nc(OC)n1 [Compound I-102] | ≥ 95% | – | 8.8% | – | 84.2%
13 | CCCCc1ccccc1NC(=O)Nc1nc2c(s1)CN(c1cc(OC)nc(OC)n1)CC2 [Compound I-150] | – | – | 3% | – | –
14 | COc1nc(N(C)C)cc(N2CCc3nc(NC(=O)Nc4ccccc4C(=O)NC(C)C)sc3C2)n1 [Compound I-41] | – | – | 5.6% | – | –
15 | COc1nccc(N2CCc3nc(NC(=O)Nc4ccccc4C(=O)NC(C)C)sc3C2)n1 [Compound I-95] | ≥ 95% | – | 3.7% | – | –
16 | COc1cc(N2CCc3nc(NC(=O)Nc4ccccc4C(=O)NC4CC4)sc3C2)nc(OC)n1 [Compound I-16] | 92% | – | 9.3% | – | –
17 | Cc1nc(NC(=O)Nc2ccccc2OCCC(C)C)sc1-c1csc(S(=O)(=O)N(C)CCN(C)C)c1 [Compound I-192] | 94% | – | – | 480 nM | –
18 | COc1cc(N2CCc3nc(NC(=O)Nc4ccccc4OCCC(C)C)sc3C2)nc(OC)n1 [Compound I-55] | – | – | 7.7% | – | –
